# Experimental data from article PMC11920646 (Frontiers in Pharmacology, 2025).
# Values joined by “and” are separate entries in the source; they are usually repeats but may differ in a detail not shown here. Equal entries are not always repeated.
# How the values were obtained:
# [1] = target: T1, human PR (Homo sapiens, UniProt P06401); test: PR reporter gene (transactivation) assay, CHO-Gal4/PR; type: cell-based; details: up to 10 µM
# T1 construct: host or cells: CHO (DSMZ ACC-110), CHO-Gal4/PR
# T1 sequence (P06401 679-913 limits assumed): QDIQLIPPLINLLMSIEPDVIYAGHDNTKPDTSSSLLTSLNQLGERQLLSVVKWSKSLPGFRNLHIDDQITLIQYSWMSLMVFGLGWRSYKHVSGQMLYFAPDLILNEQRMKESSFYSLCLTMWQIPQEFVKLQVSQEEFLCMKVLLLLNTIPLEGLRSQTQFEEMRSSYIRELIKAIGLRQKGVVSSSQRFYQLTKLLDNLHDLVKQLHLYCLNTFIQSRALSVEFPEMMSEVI
# From the text: To create the CHO-Gal4/GR, CHO-Gal4/PR, and CHO-Gal4/MR reporter cell lines, first CHO cells were stably transfected with a GAL4-UAS-luciferase reporter construct. Then, the LBD of the GR, PR, or MR (GR Gene ID: 2908, PR Gene ID: 5241, MR Gene ID: 4306, respectively) was cloned into pIRES2-EGFP-GAL4 containing the DBD of GAL4 from pFA-AT2, and then co-transfected into the luciferase-reporter construct-containing CHO cells. These reporter cell lines express the respective nuclear hormone receptor LBD-DBD fusion proteins that control luciferase expression of a GAL4-upstream activation sequence (UAS)-luciferase reporter construct, allowing for detection of ligand- or compound-induced transactivation at the GR, PR, or MR by measuring luciferase activity.
# Cryo-preserved CHO-Gal4/GR, CHO-Gal4/PR, and CHO-Gal4/MR cells were plated in medium at 7,500 cells/well in 384-well assay plates (25 μL/well), and incubated for 24 h. […] Following a 4-h incubation, cells were lysed and luminescence measured using the EMCCD camera FLIPR®Tetra (Molecular Devices, Silicon Valley, CA, United States).
# Transactivation (i.e., gene activation) was expressed as a percentage of the reference agonist activity (Supplementary Material), using Genedata Screener® v15.0.5 software (Basel, Switzerland).
# Transactivation was calculated according to this equation: […]
# [2] = test system: tyrosine aminotransferase (TAT) activity in HepG2 cells; test: Induction of TAT enzyme activity in HepG2 cells; type: cell-based, human; details: for EC50: 24 h; for Efficacy, induction of TAT enzyme activity: relative to dexamethasone, GRM-01 maximum at 10 µM
# Procedure: TAT is a key enzyme in gluconeogenesis under the control of glucocorticoids and their interaction with the GR ([Panin and Usynin, 2008]), where induction of TAT expression is mediated through GR transactivation.
# HepG2 cells were seeded at 20,000 cells/well in an Eagles’ minimal essential medium (EMEM)-based cell culture medium (Supplementary Material) in 96-well plates and incubated for 24 h in standard conditions. […] Medium was removed, cells washed with 50 μL of phosphate buffered saline (PBS) solution and lysis buffer added (45 µL/well) for a 20-min incubation in agitation at 1,200 rpm at room temperature. Detection buffer (150 µL/well) was added for a 2-h incubation after which the reaction was stopped, followed by a 30-min incubation, all at 37°C. This reaction solution was transferred to an absorbance detection plate (5 µL/well) to measure TAT expression (Envision plate reader, PerkinElmer).
# The HepG2 cell culture medium was comprised of 500 mL of Eagles’ minimal essential medium (EMEM) without L-glutamine, 5 mL of 100X penicillin/streptomycin, 5 mL of Ultraglutamine I Supplement 200 mM, 5 mL of non-essential amino acids (NEAA) 100X (all from Lonza), and 50 mL of FBS (Sigma).
# % activation= compound -minmax- min ×100
# where min = TAT expression in medium only, max = TAT expression after stimulation with dexamethasone
# [3] = test system: TNF-α–induced IL-6 release from primary fibroblast-like synoviocytes; test: Inhibition of TNF-α–induced IL-6 release by primary FLS from rheumatoid arthritis patients; type: cell-based, human; details: for IL-6 concentration: replicate wells 1-3
# Procedure: In this assay, conducted by BioIVT (Hertfordshire, United Kingdom), primary FLS were obtained from three donors with rheumatoid arthritis and seeded at passage 4 in FGM™-2 fibroblast growth medium (Lonza) in 96-well plates at a density of […], and incubated overnight in standard conditions. […] Negative controls were TNF-α alone and culture medium alone, and vehicle control was DMSO (0.1%). IL-6 was measured in collected supernatant using an enzyme-linked immunosorbent assay (ELISA, R&D Systems Minneapolis, MN, United States) according to the manufacturer’s instructions.
# % inhibition= compound -maxmin- max ×100
structure (smiles),measurement,setting,value
C[C@]12C=CC(=O)C=C1CC[C@@H]1[C@@H]2[C@@H](O)C[C@@]2(C)[C@H]1CC[C@]2(O)C(=O)CO [Prednisolone],PR transactivation,[1],no detectable transactivation
same,EC50,[2],284 ± 113 nM
same,EC50,"[2]; Homo sapiens, HepG2, 24 h",283 nM
same,"Efficacy, induction of TAT enzyme activity",[2],92.4 ± 5.3%
same,"Efficacy, induction of TAT enzyme activity",[2]; listed as prednisolone,92.4% and 92%
same,IL-6 concentration,"[3]; Donor 1, compound −5 log M",260.7 pg/mL and 224.6 pg/mL and 206.6 pg/mL
same,IL-6 concentration,"[3]; Donor 1, compound −6 log M",269.7 pg/mL and 215.6 pg/mL and 206.6 pg/mL
same,IL-6 concentration,"[3]; Donor 1, compound −7 log M",292.3 pg/mL and 274.3 pg/mL and 238.1 pg/mL
same,IL-6 concentration,"[3]; Donor 1, compound −8 log M",616.3 pg/mL and 483.3 pg/mL and 446.8 pg/mL
same,IL-6 concentration,"[3]; Donor 1, compound −9 log M",988.4 pg/mL and 736.4 pg/mL and 685.5 pg/mL
same,IL-6 concentration,"[3]; Donor 1, compound −10 log M",880.6 pg/mL and 778.2 pg/mL and 796.8 pg/mL
same,IL-6 concentration,"[3]; Donor 1, compound −11 log M",964.9 pg/mL and 801.4 pg/mL and 731.8 pg/mL
same,IL-6 concentration,"[3]; Donor 1, compound −12 log M",946.2 pg/mL and 768.9 pg/mL and 708.6 pg/mL
same,IL-6 concentration,"[3]; Donor 1, compound −13 log M",1101.6 pg/mL and 838.7 pg/mL and 755.0 pg/mL
same,IL-6 concentration,"[3]; Donor 1, compound −14 log M",1106.3 pg/mL and 960.2 pg/mL and 880.6 pg/mL
same,IL-6 concentration,"[3]; Donor 2, compound −5 log M",516.5 pg/mL and 385.6 pg/mL and 394.9 pg/mL
same,IL-6 concentration,"[3]; Donor 2, compound −6 log M",521.2 pg/mL and 394.9 pg/mL and 381.0 pg/mL
same,IL-6 concentration,"[3]; Donor 2, compound −7 log M",554.0 pg/mL and 394.9 pg/mL and 404.3 pg/mL
same,IL-6 concentration,"[3]; Donor 2, compound −8 log M",848.1 pg/mL and 695.7 pg/mL and 681.5 pg/mL
same,IL-6 concentration,"[3]; Donor 2, compound −9 log M",1338.8 pg/mL and 1045.5 pg/mL and 1157.3 pg/mL
same,IL-6 concentration,"[3]; Donor 2, compound −10 log M",1309.2 pg/mL and 1108.6 pg/mL and 1215.9 pg/mL
same,IL-6 concentration,"[3]; Donor 2, compound −11 log M",1497.4 pg/mL and 1079.5 pg/mL and 2570.2 pg/mL
same,IL-6 concentration,"[3]; Donor 2, compound −12 log M",1427.8 pg/mL and 1215.9 pg/mL and 1123.2 pg/mL
same,IL-6 concentration,"[3]; Donor 2, compound −13 log M",2326.4 pg/mL and 1123.2 pg/mL and 1142.7 pg/mL
same,IL-6 concentration,"[3]; Donor 2, compound −14 log M",1552.3 pg/mL and 1393.1 pg/mL and 1255.1 pg/mL
same,IL-6 concentration,"[3]; Donor 3, compound −5 log M",172.0 pg/mL and 199.6 pg/mL and 166.5 pg/mL
same,IL-6 concentration,"[3]; Donor 3, compound −6 log M",170.2 pg/mL and 159.2 pg/mL and 179.4 pg/mL
same,IL-6 concentration,"[3]; Donor 3, compound −7 log M",221.8 pg/mL and 220.0 pg/mL and 214.4 pg/mL
same,IL-6 concentration,"[3]; Donor 3, compound −8 log M",621.9 pg/mL and 428.5 pg/mL and 386.6 pg/mL
same,IL-6 concentration,"[3]; Donor 3, compound −9 log M",645.5 pg/mL and 847.5 pg/mL and 637.6 pg/mL
same,IL-6 concentration,"[3]; Donor 3, compound −10 log M",1022.6 pg/mL and 1127.9 pg/mL and 983.0 pg/mL
same,IL-6 concentration,"[3]; Donor 3, compound −11 log M",774.8 pg/mL and 813.1 pg/mL and 796.9 pg/mL
same,IL-6 concentration,"[3]; Donor 3, compound −12 log M",904.7 pg/mL and 837.4 pg/mL and 859.7 pg/mL
same,IL-6 concentration,"[3]; Donor 3, compound −13 log M",956.1 pg/mL and 937.5 pg/mL and 1151.3 pg/mL
same,IL-6 concentration,"[3]; Donor 3, compound −14 log M",888.3 pg/mL and 831.3 pg/mL and 947.8 pg/mL
same,IC50,"[3]; Homo sapiens, primary FLS from three RA donors, 24 h",5.6 ± 2.3 nM
same,Inhibition (efficacy) of TNF-α–induced IL-6 release,"[3]; primary FLS from three RA donors, 24 h",79.8 ± 7.6%
